Data published in US20260250278A1, “PHENYL-SUBSTITUTED DIHYDRONAPHTHYRIDINE COMPOUNDS, AND PREPARATION AND USE THEREOF” (SUZHONG PHARMACEUTICAL GROUP CO., LTD., priority 2022, published 2026).

How the values were obtained:
[1] = Pharmacokinetic test of mice (intravenous administration); format: in vivo; conditions: mouse, plasma; CD1 mice, intravenous 1 mg/kg
Experimental: This experiment was intended to evaluate a pharmacokinetic behavior of a compound after intravenous injection or intragastric administration in the mice. Intravenous injection administration: a test compound was prepared into 0.2 mg/mL clear solution, a solvent was 10% ethanol/40% polyethylene glycol 400/50% ultrapure water, and after administration, plasma was collected 0.083 hour, 0.25 hour, 0.5 hour, 1 hour, 2 hours, 4 hours, 8 hours, 24 hours and 48 hours later.
(§1) A concentration of the test compound in the plasma was determined by high-performance liquid chromatography-tandem mass spectrometry (LC-MS/MS). Retention time, chromatogram collection and chromatogram integration of compounds and internal standards were treated by software Analyst (Applied Biosystems), and data statistics was treated by software Analyst (Applied Biosystems).
(§2) A plasma concentration was treated by a non-atrioventricular model of Winnonlin™ Version 6.1 (Pharsight, Mountain View, CA) pharmacokinetic software, and pharmacokinetic parameters were calculated by a linear logarithmic trapezoid method.

CYP3A4 = CYP3A4 (Homo sapiens, UniProt P08684); experiment: biochemical; format: in vitro ADME
[2] = Pharmacokinetic test of rats (intravenous and intragastric administration); format: in vivo; conditions: SD rats
Experimental: This experiment was intended to evaluate a pharmacokinetic behavior of an implementing compound after intravenous injection or intragastric administration in the rats. Intravenous injection administration: a test compound was prepared into 0.2 mg/mL clear solution, a solvent was 10% ethanol, 40% polyethylene glycol 400 and 50% water, and after administration, plasma was collected 0.083 hour, 0.25 hour, 0.5 hour, 1 hour, 2 hours, 4 hours, 8 hours and 24 hours later. Intragastric administration: a test compound was prepared into 1 mg/mL clear solution, a solvent was 10% ethanol/40% polyethylene glycol 400/50% water, and after administration, plasma was collected 0.25 hour, 0.5 hour, 1 hour, 2 hours, 4 hours, 8 hours and 24 hours later.
as §1, §2
Pharmacokinetic parameters of the compounds in the rats with an intravenous injection dose of 1 mg/kg and an intragastric and oral dose of 5 mg/kg were as shown in Table 20 below.

[3] = rat, plasma, intragastric and oral administration 5 mg/kg
[4] = rat, plasma, intravenous 1 mg/kg

CYP3A4, sequence (P08684 2-503 limits assumed): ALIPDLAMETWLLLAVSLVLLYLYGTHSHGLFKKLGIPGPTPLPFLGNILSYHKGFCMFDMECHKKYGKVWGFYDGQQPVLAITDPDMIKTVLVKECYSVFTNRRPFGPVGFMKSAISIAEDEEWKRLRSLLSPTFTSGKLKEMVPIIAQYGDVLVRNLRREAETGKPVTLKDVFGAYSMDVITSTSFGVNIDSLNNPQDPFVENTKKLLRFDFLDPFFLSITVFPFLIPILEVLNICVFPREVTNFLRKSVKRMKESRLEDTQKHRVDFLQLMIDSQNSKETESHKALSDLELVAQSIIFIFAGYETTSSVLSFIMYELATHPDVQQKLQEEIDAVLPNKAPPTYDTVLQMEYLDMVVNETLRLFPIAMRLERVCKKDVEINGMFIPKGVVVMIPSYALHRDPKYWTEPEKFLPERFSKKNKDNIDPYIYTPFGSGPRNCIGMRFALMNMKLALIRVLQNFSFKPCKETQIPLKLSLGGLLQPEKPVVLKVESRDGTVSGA

Row | SMILES | AUC(0-t) [1] [µg·h/mL] | IC50 (CYP3A4; CYP3A4-5M IC50, human CYP3A4, CYP3A4-5M) [µM] | IC50 (CYP3A4; CYP3A4-5T IC50, human CYP3A4, CYP3A4-5T) [µM] | F ([2]; intragastric and oral administration 5 mg/kg) [%] | AUC(0-t) [2, 3] [µg·h/mL] | Cmax [2, 3] [ng/mL] | AUC(0-t) [2, 4] [µg·h/mL] | clearance [2, 4] [mL/min/kg] | half-life [2, 4] [h]
1 | CCOc1nc2ccsc2c2c1[C@H](c1ccc(C#N)cc1OC)C(C(N)=O)=C(C)N2 [Example 38, (S)-6-(4-cyano-2-methoxyphenyl)-5-ethoxy-8-methyl-6,9-dihydrothieno[3,2-h][1,6]naphthyridine-7-formamide] | 2.55 |  |  |  |  |  |  |  | 
2 | CCOc1ncc(C)c2c1[C@H](c1ccc(C#N)cc1OC)C(C(N)=O)=C(C)N2 [Finerenone, reference compound] | 142 | 9.98 | 8.02 | 60.3 | 307 | 23800 | 91.2 | 0.34 | 9.62
